Earlier results in US7005448B2, “Aminoalkyl-benzofuran-5-ol compounds for the treatment of glaucoma” (priority 2001, dated 2006).
Like-named read-outs stand apart in the source and are kept apart here.

Key:
rabbit eye = conditions: for intraocular pressure in the anterior chamber of the eye: topically applied to the rabbit eye [Meyer-Bothling et al. 1993]
animals = conditions: in vivo
5-HT2A receptor = 5-HT2A receptor (Homo sapiens, UniProt P28223)
[1] = intracamerally [Krootila et al. 1987]

Chain of 5-HT2A receptor (P28223 whole entry): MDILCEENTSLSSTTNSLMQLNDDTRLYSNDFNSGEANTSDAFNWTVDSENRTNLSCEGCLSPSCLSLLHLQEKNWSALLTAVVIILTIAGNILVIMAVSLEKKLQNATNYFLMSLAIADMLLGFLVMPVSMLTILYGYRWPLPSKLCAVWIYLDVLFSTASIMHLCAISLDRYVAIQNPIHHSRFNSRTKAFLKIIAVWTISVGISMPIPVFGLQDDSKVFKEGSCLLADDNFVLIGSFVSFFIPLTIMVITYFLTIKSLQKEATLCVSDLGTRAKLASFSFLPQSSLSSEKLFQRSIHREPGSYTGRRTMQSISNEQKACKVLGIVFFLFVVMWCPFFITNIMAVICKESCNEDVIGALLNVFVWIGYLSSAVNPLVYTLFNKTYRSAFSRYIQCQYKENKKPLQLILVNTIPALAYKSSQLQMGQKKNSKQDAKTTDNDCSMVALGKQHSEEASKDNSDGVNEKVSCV

**Q.** For `CNCCC(Oc1ccc(C(F)(F)F)cc1)c1ccccc1` (stereo not shown) [fluoxetine], which IOP (human subjects; human subjects, oral administration) is on record?
**A.** Its IOP is “raises IOP”.

**Q.** Which IOP (rabbit eye; rabbits) does the source give for `CC[C@@H](CO)NC(=O)[C@@H]1C=C2c3cccc4c3c(cn4C)C[C@H]2N(C)C1` [Methysergide] here?
**A.** Its IOP is “lowered IOP”.

**Q.** With `c1ccc2c(c1)OC[C@H](CNCCCOc1ccc3c(c1)OCO3)O2` [MKC-242] as the compound, how does the IOP (rabbit eye; rabbits) read?
**A.** Its IOP is “lower IOP”.

**Q.** What about the “α1 receptor antagonist activity” value (α1 receptor) of the same compound?
**A.** The value was “relatively potent α1 receptor antagonists”.

**Q.** For `COc1ccccc1N1CCN(CCCNc2c(C)c(=O)n(C)c(=O)n2C)CC1` [5-methylurapidil], which IOP (glaucomatous monkeys) is on record?
**A.** Its IOP is “lowered IOP”.

**Q.** And the “α1 receptor antagonist activity” value (α1 receptor)?
**A.** Its value is “relatively potent α1 receptor antagonists”.

**Q.** For `NCCc1c[nH]c2ccc(C(N)=O)cc12` [Compound 5-CT, 5-carboxamidotryptainine], which “intraocular pressure in the anterior chamber of the eye” value (rabbit eye) is on record?
**A.** Its value is “raise intraocular pressure”.

**Q.** Which results are given for `NCCc1c[nH]c2ccc(O)cc12` [Compound 5-HT, 5-hydroxy tryptamine]?
**A.** IOP (rabbit eye; [1]): raised IOP; blood-aqueous barrier (rabbit eye; [1]): breakdown of the blood-aqueous barrier; IOP (rabbit eye; topically applied [Krootila et al. 1987]): lowers IOP; intraocular pressure in the anterior chamber of the eye (rabbit eye): raise intraocular pressure

**Q.** For `CCCN(CCC)C1CCc2cccc(O)c2C1` (stereo not shown) [8-hydroxy DPAT], which IOP (rabbit eye; rabbits) is on record?
**A.** Its IOP is “lower IOP”.

**Q.** For `CC(N)Cc1c2ccoc2c(Br)c2ccoc12` (stereo not shown) [The Nichols compound], which “generalization to LSD in drug discrimination studies” value (animals) is on record?
**A.** Its value is “generalize to LSD”.

**Q.** And the “affinity for the 5-HT2A receptor” value (5-HT2A receptor)?
**A.** The value was “high affinity”.

**Q.** With `COc1cccc(CCc2ccccc2OCC(CN(C)C)OC(=O)CCC(=O)O)c1` (stereo not shown) [Saprogrelate] as the compound, how does the IOP (rabbit eye; rabbits, dosed topically or orally) read?
**A.** Its IOP is “lowers IOP”.

**Q.** And the IOP (human subjects; man, dosed topically or orally)?
**A.** Its IOP is “lowers IOP”.

**Q.** Which results are given for `O=C(c1ccc(F)cc1)C1CCN(CCn2c(=O)[nH]c3ccccc3c2=O)CC1` [Ketanserin]?
**A.** IOP (rabbit eye; rabbits): lowers IOP; IOP (human subjects; man): lowers IOP; α1 receptor antagonist activity (α1 receptor): significant α1 antagonist activity
